The supplement of paper PMC10307832

Key:
Assay in all cases: relative viability (nuclei count vs DMSO), 5 days (fraction); higher = more cells survive
[1] = compound: C1=CC2=C(C=CC(=C2)C=C3C(=O)NC(=NCC4=CC=CS4)S3)N=C1 [RO-3306] + N=C(N)NC(=N)NCCc1ccccc1 [Phenformin] (partner 250 µM)
Procedure, shortened: (§1)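 Each reported value is a median over duplicate plates. It expresses relative viability: treated-well nuclei count divided by vehicle-well nuclei count. Lung cancer cell lines in 1536-well plates were dosed by pin tool a day after seeding, alone with one drug or with a fixed anchor-drug dose plus five library-drug doses (not always all listed) in √10 steps, and nuclei were counted after 5 days.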

[2] = compound: O=S(=O)(c1ccccc1)N(CC(F)(F)F)c1ccc(C(O)(C(F)(F)F)C(F)(F)F)cc1 + N=C(N)NC(=N)NCCc1ccccc1 [Phenformin] (partner 250 µM)
Procedure, shortened: as §1

[3] = compound: C1=CC2=C(C=CC(=C2)C=C3C(=O)NC(=NCC4=CC=CS4)S3)N=C1 [RO-3306] + CS(=O)(=O)CCNCc1ccc(-c2ccc3ncnc(Nc4ccc(OCc5cccc(F)c5)c(Cl)c4)c3c2)o1 [Lapatinib] (partner 2 µM)
Procedure, shortened: as §1

[4] = compound: C1=CC2=C(C=CC(=C2)C=C3C(=O)NC(=NCC4=CC=CS4)S3)N=C1 [RO-3306] + O=C(CCCCCCC(=O)Nc1ccccc1)NO [Vorinostat] (partner 1 µM)
Procedure, shortened: as §1

Cell Line | relative viability ([1]; first compound 0.01 µM) | relative viability ([1]; first compound 0.03162 µM) | relative viability ([1]; first compound 0.1 µM) | relative viability ([1]; first compound 0.3162 µM) | relative viability ([1]; first compound 1 µM) | relative viability ([2]; first compound 0.8 µM) | relative viability ([2]; first compound 2.53 µM) | relative viability ([2]; first compound 8 µM) | relative viability ([3]; first compound 0.01 µM) | relative viability ([3]; first compound 0.03162 µM) | relative viability ([3]; first compound 0.1 µM) | relative viability ([3]; first compound 0.3162 µM) | relative viability ([3]; first compound 1 µM) | relative viability ([4]; first compound 0.01 µM) | relative viability ([4]; first compound 0.03162 µM) | relative viability ([4]; first compound 0.1 µM) | relative viability ([4]; first compound 0.3162 µM) | relative viability ([4]; first compound 1 µM)
NCI-H1944 | 0.206 | 0.182 | 0.2 | 0.168 | 0.194 | 0.209 | 0.19 | 0.197 | 0.774 | 0.674 | 0.802 | 0.909 | 0.545 | 0.595 | 0.566 | 0.588 | 0.562 | 0.509
RERF-LC-KJ | 0.428 | 0.445 | 0.416 | 0.445 | 0.407 | 0.449 | 0.364 | 0.408 | 0.861 | 0.842 | 0.828 | 0.864 | 0.702 | 0.725 | 0.64 | 0.67 | 0.687 | 0.63
NCI-H647 | 0.682 | 0.304 | 0.449 | 0.582 | 0.392 | 0.502 | 0.552 | 0.455 | 1.45 | 0.881 | 0.974 | 1.32 | 0.783 | 0.708 | 0.512 | 0.371 | 0.6 | 0.473
NCI-H838 | 0.756 | 0.442 | 0.521 | 0.653 | 0.538 | 0.656 | 0.56 | 0.627 | 1.02 | 0.6 | 0.951 | 1.08 | 0.902 | 0.726 | 0.694 | 0.722 | 0.738 | 0.674
NCI-H2170 | 0.425 | 0.422 | 0.396 | 0.383 | 0.435 | 0.379 | 0.348 | 0.344 | 0.254 | 0.302 | 0.272 | 0.265 | 0.302 | 0.901 | 0.568 | 0.886 | 0.842 | 0.856
COR-L 105 | 0.499 | 0.386 | 0.417 | 0.517 | 0.429 | 0.455 | 0.422 | 0.492 | 0.34 | 0.351 | 0.334 | 0.333 | 0.314 | 0.779 | 0.773 | 0.77 | 0.759 | 0.751
HOP-62 | 0.694 | 0.405 | 0.777 | 0.714 | 0.659 | 0.646 | 0.533 | 0.427 | 1.47 | 0.771 | 0.93 | 1.04 | 1.06 | 0.615 | 0.44 | 0.486 | 0.611 | 0.638
A-427 | 0.339 | 0.241 | 0.312 | 0.295 | 0.243 | 0.286 | 0.254 | 0.326 | 1.08 | 0.986 | 1.05 | 1.03 | 0.448 | 0.843 | 0.818 | 0.898 | 0.911 | 0.865
PC-14 | 0.616 | 0.504 | 0.503 | 0.595 | 0.499 | 0.309 | 0.357 | 0.447 | 0.326 | 0.395 | 0.312 | 0.317 | 0.295 | 1.03 | 0.682 | 0.72 | 0.796 | 0.682
